One experiment concerns the target T1, DGKA (Homo sapiens, UniProt P23743).
T1 construct: purchased SignalChem D21-10BG
Put plainly: DGKA Inhibition ADP-Glo Assay. The class given is biochemical. As to conditions: 40 μM ATP. Here is the method: The DGKA inhibition reactions were performed using ADP-Glo assay. The reactions were carried out in 50 mM HEPES, 100 mM NaCl, 10 mM MgCl2, 1 mM CaCl2, 0.005% TritonX-100 and 1 mM DTT as working solution (pH=7.5). 30 nL DMSO solution of each test compound (Top concentration […] with 10 point, 4-fold dilution series for each compound) were transferred to 384 well plate by Echo and 5 μL DGKA (SignalChem, D21-10BG) enzyme working solution at 2× final reaction concentration was added to each well. After incubated at 25° C. for 15 minutes, 5 μL substrate working solution contain 40 μM ATP (Promega, V915B) and 200 µM DLG (SignalChem, D430-59) were added to initiate reaction. After enzymatic reaction at 25° C. for 60 min, ADP Glo assay reagents (Promega, V9102) were added and luminescence was recorded using an EnVision following the instruction of manual. […] The IC50 value was calculated via a regression analysis of the inhibition rate.
For orientation: ADP-Glo turns the ADP formed in a reaction into a luminescent signal.

A further experiment has as its system Human Pan T cells. Put plainly: IL-2 Release Detection Assay. The format is cell-based. The following applies: T-cell; for EC50: IL-2 in supernatant by ELISA, anti-CD3 pre-coated plate, 24 hours; for maximal fold induction: Top activation/DMSO control; for activity at 0.1 µM: curve value at 100 nM/DMSO control*100%, read-out: Activation % at 100 nM. Here is the method:
Isolate Human Pan T cells from PBMC according to T cell isolation kit (Stemcell, 17951). The suspend T cell in RPMI 1640 medium containing 10% FBS, 1% PS and 55 µM β-Mer at a density of 3*10^6 cells/well/3 ml are seeded into 6 well plate, recovered overnight at 37° C.&[…]. Harvest overnight recovered T cells are suspended in fresh RPMI1640 medium containing 10% FBS, 1% PS and 55 μM f-Mer, seeded 1*10^5/well/200 μl cells into the anti-CD3 pre-coated 96 well plate. Add dilutions of compounds into the cells and incubate at 37° C.&5% CO2 for 24 hours. IL-2 in cell supernatant was detected by ELISA Kit (R&D, DY202). Fit the compound EC50 in non-linear regression equation: Y=Bottom+(Top−Bottom)/(1+10^((Log EC50−X)*HillSlope)), X=compound concentration, Y=Activation %. Top and Bottom: Plateaus in same units as Y. Log EC50: same log units as X. Activation fold: Top activation/DMSO control. Activation % at 100 nM: Activation of non-linear regression equation curve at the concentration of 100 nM/DMSO control*100%.

Each structure is given as a SMILES string.

T1 sequence (P23743 whole entry): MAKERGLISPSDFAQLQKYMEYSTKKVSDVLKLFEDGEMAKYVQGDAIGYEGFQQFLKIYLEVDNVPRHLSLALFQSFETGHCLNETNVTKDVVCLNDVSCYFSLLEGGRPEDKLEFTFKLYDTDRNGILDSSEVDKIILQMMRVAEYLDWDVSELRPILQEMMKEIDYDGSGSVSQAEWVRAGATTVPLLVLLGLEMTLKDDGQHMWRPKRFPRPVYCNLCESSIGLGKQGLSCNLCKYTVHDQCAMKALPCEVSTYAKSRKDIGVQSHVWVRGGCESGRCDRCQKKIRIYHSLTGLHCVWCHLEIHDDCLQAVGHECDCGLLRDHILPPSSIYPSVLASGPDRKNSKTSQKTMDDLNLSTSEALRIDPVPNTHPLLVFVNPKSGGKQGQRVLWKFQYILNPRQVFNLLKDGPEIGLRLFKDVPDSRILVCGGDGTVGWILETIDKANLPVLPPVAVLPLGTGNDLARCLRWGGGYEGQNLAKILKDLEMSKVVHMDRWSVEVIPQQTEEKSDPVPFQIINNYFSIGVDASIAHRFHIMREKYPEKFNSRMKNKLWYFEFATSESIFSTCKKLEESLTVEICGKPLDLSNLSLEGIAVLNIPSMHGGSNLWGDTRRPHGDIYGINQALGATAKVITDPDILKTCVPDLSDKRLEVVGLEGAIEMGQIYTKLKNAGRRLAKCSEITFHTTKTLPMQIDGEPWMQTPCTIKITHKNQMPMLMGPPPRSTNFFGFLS

`Cn1c(=O)cc(N2CCOCc3c(C#CC4(C(F)(F)F)CC4)cccc32)c2cc(Cl)ccc21` [Example 3, 6-chloro-1-methyl-4-(6-((1-(trifluoromethyl)cyclopropyl)ethynyl)-2,3-dihydrobenzo[e][1,4]oxazepin-1(5H)-yl)quinolin-2(1H)-one] came in with an IC50 against DGKA of 1 to 10 nM. In the experiment on Human Pan T cells, the EC50 is 422 nM, the maximal fold induction was 6.3 and the activity at 0.1 µM was determined as 247%.
The compound `Cn1c(=O)cc(N2CCOCc3c(C#CC4(C(F)(F)F)CC4)cccc32)c2cc(C#N)ccc21` [Example 4, 1-methyl-2-oxo-4-(6-((1-(trifluoromethyl)cyclopropyl)ethynyl)-2,3-dihydrobenzo[e][1,4]oxazepin-1(5H)-yl)-1,2-dihydroquinoline-6-carbonitrile] had an IC50 against DGKA of 1 to 10 nM. Moreover, in the experiment on Human Pan T cells, it took 479 nM to reach a half-maximal effect (EC50), the maximal fold induction worked out at 10 and the activity at 0.1 µM is 313%.
The matching figures for `Cn1c(=O)nc(N2CCOCc3c(C#CC4(C(F)(F)F)CC4)cccc32)c2cc(F)ccc21` [Example 9, 6-fluoro-1-methyl-4-(6-((1-(trifluoromethyl)cyclopropyl)ethynyl)-2,3-dihydrobenzo[e][1,4]oxazepin-1(5H)-yl)quinazolin-2(1H)-one]: less than 1 nM, 1370 nM, 13.2 and 180%.
The matching figures for `Cn1c(=O)c(C#N)c(N2CCOCc3c(C#CC4(C(F)(F)F)CC4)cccc32)c2cc(F)ccc21` [Example 10, 6-fluoro-1-methyl-2-oxo-4-(6-((1-(trifluoromethyl)cyclopropyl)ethynyl)-2,3-dihydrobenzo[e][1,4]oxazepin-1(5H)-yl)-1,2-dihydroquinoline-3-carbonitrile]: 1 to 10 nM, 2610 nM, 5.8 and 95.5%.
The matching figures for `Cn1c(=O)nc(N2CCOCc3c(C#CC4(C(F)(F)F)CC4)cccc32)c2cc(Cl)c(OC3CCOC3)cc21` (stereo not drawn) [Example 11, 6-chloro-1-methyl-7-((tetrahydrofuran-3-yl)oxy)-4-(6-((1-(trifluoromethyl)cyclopropyl)ethynyl)-2,3-dihydrobenzo[e][1,4]oxazepin-1(5H)-yl)quinazolin-2(1H)-one]: less than 1 nM, 335 nM, 8.6 and 324%.
Regarding `Cn1c(=O)nc(N2CCOCc3c(C#CC4(C(F)(F)F)CC4)cccc32)c2cc(C#N)c(OCCO)cc21` [Example 14, 7-(2-hydroxyethoxy)-1-methyl-2-oxo-4-(6-((1-(trifluoromethyl)cyclopropyl)ethynyl)-2,3-dihydrobenzo[e][1,4]oxazepin-1(5H)-yl)-1,2-dihydroquinazoline-6-carbonitrile], on DGKA, the IC50 is less than 1 nM. In the experiment with Human Pan T cells, the EC50 stood at 265 nM, the maximal fold induction was determined as 15.3 and the activity at 0.1 µM worked out at 639%.
For `COCCOc1cc2c(cc1Cl)c(N1CCOCc3c(C#CC4(C(F)(F)F)CC4)cccc31)nc(=O)n2C` [Example 17, 6-chloro-7-(2-methoxyethoxy)-1-methyl-4-(6-((1-(trifluoromethyl)cyclopropyl)ethynyl)-2,3-dihydrobenzo[e][1,4]oxazepin-1(5H)-yl)quinazolin-2(1H)-one], the IC50 at DGKA is less than 1 nM. In the experiment with Human Pan T cells, a half-maximal effect (EC50) was put at 1000 nM, the maximal fold induction was 10.2 and the activity at 0.1 µM is 202%.
In the same order, the values of `Cn1c(=O)nc(N2CCOCc3c(C#CC4(C(F)(F)F)CC4)cccc32)c2cc(Cl)c(N3CCOCC3)cc21` [Example 19, 6-chloro-1-methyl-7-morpholino-4-(6-((1-(trifluoromethyl)cyclopropyl)ethynyl)-2,3-dihydrobenzo[e][1,4]oxazepin-1(5H)-yl)quinazolin-2(1H)-one] are 1 to 10 nM, 2190 nM, 25.2 and 234%.
As for `Cn1c(=O)nc(N2CCOCc3c(C#CC4(C(F)(F)F)CC4)cccc32)c2cc(Cl)c(OCCCN)cc21` [Example 20, 7-(3-aminopropoxy)-6-chloro-1-methyl-4-(6-((1-(trifluoromethyl)cyclopropyl)ethynyl)-2,3-dihydrobenzo[e][1,4]oxazepin-1(5H)-yl)quinazolin-2(1H)-one], on DGKA, the half-maximal inhibitory concentration (IC50) lay in the range of 1 to 10 nM. Also, in the experiment on Human Pan T cells, the EC50 came out at 62.8 nM, the maximal fold induction worked out at 1.7 and the activity at 0.1 µM came out at 173%.
In the same order, the values of `Cn1c(=O)nc(N2CCOCc3c(C#CC4(C(F)(F)F)CC4)cccc32)c2cc(Cl)c(OC3CCOCC3)cc21` [Example 25, 6-chloro-1-methyl-7-((tetrahydro-2H-pyran-4-yl)oxy)-4-(6-((1-(trifluoromethyl)cyclopropyl)ethynyl)-2,3-dihydrobenzo[e][1,4]oxazepin-1(5H)-yl)quinazolin-2(1H)-one] are less than 1 nM, 243 nM, 5.4 and 275%.
The matching figures for `Cn1c(=O)nc(N2CCOCc3c(C#CC4(C(F)(F)F)CC4)cccc32)c2cc(Cl)c(OCCN)cc21` [Example 32, 7-(2-aminoethoxy)-6-chloro-1-methyl-4-(6-((1-(trifluoromethyl)cyclopropyl)ethynyl)-2,3-dihydrobenzo[e][1,4]oxazepin-1(5H)-yl)quinazolin-2(1H)-one]: less than 1 nM, 702 nM, 33.9 and 540%.
The matching figures for `Cn1c(=O)nc(N2CCOCc3c(C#CC4(C(F)(F)F)CC4)cccc32)c2cc(C#N)c(OCCN)cc21` [Example 33, 7-(2-aminoethoxy)-1-methyl-2-oxo-4-(6-((1-(trifluoromethyl)cyclopropyl)ethynyl)-2,3-dihydrobenzo[e][1,4]oxazepin-1(5H)-yl)-1,2-dihydroquinazoline-6-carbonitrile]: less than 1 nM, 714 nM, 38.4 and 631%.
As to `CCc1cccc2c1COCCN2c1nc(=O)n(C)c2cc(OCCO)c(C#N)cc12` [Example 45, 4-(6-ethyl-2,3-dihydrobenzo[e][1,4]oxazepin-1(5H)-yl)-7-(2-hydroxyethoxy)-1-methyl-2-oxo-1,2-dihydroquinazoline-6-carbonitrile], the IC50 against DGKA lay in the range of 1 to 10 nM.
Same read-out and setting: the same measure for `Cn1c(=O)nc(N2CCOCc3c(N4CCCC4)cccc32)c2cc(C#N)c(OCCO)cc21` [Example 46, 7-(2-hydroxyethoxy)-1-methyl-2-oxo-4-(6-(pyrrolidin-1-yl)-2,3-dihydrobenzo[e][1,4]oxazepin-1(5H)-yl)-1,2-dihydroquinazoline-6-carbonitrile]: less than 1 nM; for `Cn1c(=O)nc(N2CCOCc3c(C#CC4CC4)cccc32)c2cc(C#N)c(OCCO)cc21` [Example 47, 4-(6-(cyclopropylethynyl)-2,3-dihydrobenzo[e][1,4]oxazepin-1(5H)-yl)-7-(2-hydroxyethoxy)-1-methyl-2-oxo-1,2-dihydroquinazoline-6-carbonitrile]: less than 1 nM.

By IC50 is commonly meant the concentration at which inhibition is half-maximal. A low value points to greater potency in that assay. Usually EC50 stands for the concentration at which the effect is half-maximal. Higher therefore signals weaker potency. The term maximal fold induction denotes the signal under treatment as a multiple of the control signal. A lower maximal fold induction goes with a weak induction.

(Values after US20250214990A1, “DIACYLGLYCEROL KINASE (DGK) ALPHA INHIBITORS AND USES THEREOF” (Insilico Medicine IP Limited, priority 2022, published 2025).)
